In patent publication US7307102B2, “Method of preventing or treating estrogen-dependent diseases and disorders” (Duke University, priority 1997, dated 2007):

Experiments:
[1] = system: MCF-7 breast cancer tumors; test: Antiestrogen treatment of MCF-7 breast cancer tumors in nude mice (Example 4); format: in vivo, mouse; settings: two highest doses of GW5638 (0.6 mg, 1.0 mg) vs 1.0 mg tamoxifen, FIG. 9
Description: FIG. 9. Effect of anti-estrogen treatment on MCF-7 breast cancer tumors in nude mice.
This study was conducted using tumor cells derived from the MCF-7 breast cancer line. This line is estrogen and progesterone receptor positive, dependent upon hormone and sensitive to antihormones. The tumor cells were inoculated into the flank of ovariectomized, athymic BALB/c Urd nunu mice. The mice were supplemented with slow release estrogen pellets. Animals were given subcutaneous daily injections as indicated below:
Group 1: control (corn oil)
Using calipers, tumors were measured in 2 dimensions, where tumor area=½×w/2×π.

[2] = Total serum cholesterol in ovariectomized rats; format: in vivo, rat; settings: OVX rats, 28 days, lowest concentration tested, FIG. 4
Description: (§1) Animal preparation. […] At sacrifice, animals were euthanized with C02, body weights were recorded and the uteri were removed and weighed. Uterus, vagina and mammary tissue were fixed in 10% neutral buffered formalin. Samples for histologic processing were taken from the mid-point of each uterine horn. Tissue samples were embedded in paraffin, stained with haematoxylin and eosin and evaluated microscopically. Lumbar vertebrae and both left and right tibiae were excised. Total blood cholesterol was measured (Roche Biomedical Laboratories).

[3] = Uterotrophic assay in immature rats
Description: FIG. 5. […] The data shown represent the mean value (±SEM).
Twenty-one day old female Sprague-Dawley rats (30-35 gms) were obtained from Harlan or Taconic Laboratories. Animals were sorted randomly into treatment groups of five, and average weights were recorded for each treatment group. Weights were recorded on each treatment day. […] On day of dosing, drug was diluted in 0.5% methyl cellulose, viscosity of 2% at 25° C.:400 centipoises (Sigma, St. Louis, Mo.)). Oral dosing by gavage was based on a total volume of 10 ml/kg body weight. […] Subcutaneous dosing was based on a total of 2 ml/kg body weight. […] On day 4, animals were sacrificed by C02 asphyxiation, body weights were obtained and uteri were removed, blotted and weighed. Data were expressed as uterine weight/body weight.
In this assay, uterine wet weight was used as a measure of ER-agonist activity in this tissue (FIG. 5).

[4] = Uterine wet weight, body weight and uterine histology in ovariectomized rats, 28 day treatment; format: in vivo, rat
Description: FIGS. 8A-8D. […] Photographs were taken at 150× magnification and subsequently enlarged to a final magnification of 600×.
as §1
In addition to measurements of uterine wet weight, a histological examination of the uteri harvested from the same animals was performed (FIGS. 7A-7F (low magnification) and FIGS. 8A-8D (high magnification)).

ER-TAF1 = test: C3 promoter-luciferase cotransfection assay in HepG2 cells, ER-TAF1 (AF-2 disrupted); format: cell-based, human
Text: FIGS. 1A and 1B. […] The human C3 promoter (−1807 to +58) fused to the firefly luciferase reporter gene was transfected along with an expression plasmid containing (FIG. 1A) the wild-type human estrogen receptor (ERwt), or (FIG. 1B) a mutated ER in which the AF-2 function had been disrupted (ER-TAFl) into HepG2 cells and tested for transcriptional activation in the presence of increasing concentrations of ER-modulator as indicated. Transfections were normalized for efficiency and cell number by cotransfecting an expression plasmid containing β-galactosidase. The normalized response was obtained by dividing light units by the activity of β-galactosidase as measured in an enzymatic assay. Triplicate transfections were performed. The data shown are representative of multiple experiments performed under similar conditions.
FIGS. 2A-2C. […] FIG. 2A. […] FIG. 2B. […] FIG. 2C. […] Transfections were normalized for efficiency and cell number by cotransfecting an expression plasmid containing β-galactosidase. The normalized response was obtained by dividing light units by the activity of β-galactosidase as measured in an enzymatic assay. Representative assays are shown in which triplicate transfections were performed. Error bars represent the standard error of the mean (SEM).
HepG2 cells were maintained in Modified Eagles Medium (MEM) (Life Technologies, Grand Island, N.Y.) plus 10% Fetal Calf Serum (FCS) (Life Technologies). Cells were plated in 24 well plates (coated with gelatin) 24 hours prior to transfection. DNA was introduced into the cells using Lipofectin (Life Technologies). Briefly, triplicate transfections were performed using 3 μg of total DNA. For standard transfections, 500 ng of pCMV-β-Gal (normalization vector), 1500 ng reporter (variable) and 1000 ng receptor (pRST7-hER (Dana et al, Mol. Endocrinol. 8:1193-1207 (1994)) were used for each triplicate. Incubation of the cells with Lipofectin proceeded for 3 hrs, at which time media was removed, cells were washed with PBS and then induced with the appropriate hormone diluted in phenol red-free media containing 10% charcoal stripped CS (Cyclone Inc.). Incubation with hormone continued for 48 hrs, after which cells were lysed and assayed for luciferase and β-galactosidase activity as previously described (Norris et al, JBC 270:22777-22782 (1995)).
A series of in vitro screens have been developed that permit the classification of ER-modulators into four mechanistically distinct groups (Tzukerman et al, Mol. Endocrinol. 8:21-30 (1994)). […] Using these assays, it has been possible to derive “fingerprints” of known ER-modulators (McDonnell et al, Mol. Endocrinol. 9:659-669 (1995)).
Subsequently, the transfected cells were assayed for luceriferase and β-galactosidase activity. Each data point in this experiment represents the average of triplicate determinations of the transcriptional activity under given experimental conditions.

[5] = Bone mineral density in ovariectomized rats (DEXA, pQCT); format: in vivo, rat; settings: oral, 28 days
Description: FIGS. 3A and 3B. […] FIG. 3A. […] FIG. 3B.
as §1

MCF-7/LCC2 = test: LCC2 study, MCF-7/LCC2 tumors in nude mice; format: in vivo, mouse; settings: after 8 weeks, 1.0 mg every three days, FIG. 11
Description: This experiment was conducted to determine the ability of GW5638 to retard the growth of this cell line in nude mice relative to control or tamoxifen treated tumors.
40 OVX mice were prepared to accept cells and grouped as follows:
Control animals received nothing and groups 3 and 4 received 0.1 ml injections in corn oil every three days. Tumors were measured Q3 days with calipers, and the area calculated as follows: Area=½×w/2×π.

[6] = system: MCF-7 breast cancer tumors; test: Dose response study, MCF-7 breast cancer tumors in nude mice (Example 5); format: in vivo, mouse; settings: after 8 weeks, 0.6 mg and 1.0 mg vs 1.0 mg tamoxifen, FIG. 10
Description: 10 OVX donor mice were injected with 5 million MCF-7 cells. The resulting tumors were transplanted to recipient mice. All animals were given slow release estradiol pellets. […] Tumors were measured daily with calipers, and the area calculated as follows: Area=½×w/2×π.

uterotrophic activity at 10 μm/kg/d ([3]; rat, in vivo, po): inactive
SMILES: CC/C(=C(\c1ccccc1)c1ccc(/C=C/C(=O)O)cc1)c1ccccc1 [GW5638]
effect on tumors compared with tamoxifen [1]: no significant difference
total serum cholesterol level [2]: as effective as estradiol in decreasing serum cholesterol levels
inhibition of the agonist activity of estradiol in the uterus ([3]; 21 day old immature rats, in the presence of estradiol): could completely inhibit the agonist activity of estradiol
uterotrophic activity (uterine wet weight) ([4]; 90-day old OVX rats, 28 days, doses up to three times that required for bone protection, FIG. 6): minimal uterotrophic activity
total body weight versus sham operated animals ([4]; OVX rats, 28 days): no significant differences
uterine epithelial cells, histology ([4]; OVX rats, 28 days): dose-related hypertrophy
uterine stroma, histology ([4]; OVX rats, 28 days): marginal increase in intercellular connective tissue and ground substance
stromal response and eosinophilic infiltration at the highest doses ([4]; OVX rats, highest doses): less than observed in estradiol treated rats
epithelial hypertrophy at the highest doses ([4]; OVX rats, highest doses (3-fold higher than required for bone protection)): comparable to that of estradiol treated uteri
inhibition of the partial agonist activity of raloxifene on ER-TAF1 (ER-TAF1; ER-TAF1): inhibited
inhibition of estradiol- and tamoxifen-induced ER-TAF1 transcriptional activity (ER-TAF1; ER-TAF1, FIG. 2B): capable of inhibiting
agonist activity on ER-TAF1 (ER-TAF1; ER-TAF1, compound alone, FIG. 1B): functionally inactive
bone mineral density, lumbar spine ([5]; 90-day old OVX rats, FIG. 3A): dose-dependent bone protective activity
tibial BMD ([5]; OVX rats, FIG. 3B): effective at maintaining total bone mass
dose at which bone protection is as effective as estradiol ([5]; lumbar spine BMD, OVX rats, 3 μmol/kg(1 mg/kg)): 3 µmol/kg
tumor growth (MCF-7/LCC2): equally inhibit growth of this tumor
tumor growth compared with tamoxifen [6]: indistinguishable from the 1.0 mg tamoxifen
